# Test results as given in patent US7759337B2, “Phthalazine compounds and methods of use” (Amgen Inc., priority 2005, dated 2010).
# System: production of TNF by monocytes activated with bacterial lipopolysaccharide (LPS)
# Assay: Lipopolysaccharide-activated monocyte TNF production assay
# Format: cell-based
# Settings: Homo sapiens; whole blood monocyte assay (LPS induced TNF release)
# Description: Test compounds were evaluated in vitro for the ability to inhibit the production of TNF by monocytes activated with bacterial lipopolysaccharide (LPS). Fresh residual source leukocytes (a byproduct of plateletpheresis) were obtained from a local blood bank, and peripheral blood mononuclear cells (PBMCs) were isolated by density gradient centrifugation on Ficol-Paque Plus (Pharmacia). PBMCs were suspended at 2×10^6/mL in DMEM supplemented to contain 2% FCS, 10 mM, 0.3 mg/mL […], 100 U/mL penicillin G and […] streptomycin sulfate (complete media). Cells were plated into Falcon flat bottom, 96 well culture plates (200 μL/well) and cultured overnight at 37° C. and 6% CO2. Non-adherent cells were removed by washing with 200 μl/well of fresh medium.
# Test compounds were dissolved in […]. Compound stock solutions were prepared to an initial concentration of […]. Stocks were diluted initially to 20-200 μM in complete media. Nine two-fold serial dilutions of each compound were then prepared in complete medium.
# One hundred microliters of each test compound dilution were added to microtiter wells containing adherent monocytes and 100 μL complete medium. Monocytes were cultured with test compounds for 60 min at which time 25 μL of complete medium containing 30 ng/mL lipopolysaccharide from E. coli K532 were added to each well. Cells were cultured an additional 4 hrs. Culture supernatants were then removed and TNF presence in the supernatants was quantified using an ELISA.
# Flat bottom, 96 well Corning High Binding ELISA plates were coated overnight (4° C.) with 150 μL/well of 3 μg/mL murine anti-human TNF-α MAb (R&D Systems #MAB210). Wells were then blocked for 1 h at room temperature with 200 μL/well of CaCl2-free ELISA buffer supplemented to contain 20 mg/mL BSA (standard ELISA buffer: […], 150 mM NaCl, 2 mM CaCl2, 0.15 mM thimerosal, pH 7.4). Plates were washed and replenished with 100 μL of test supernatants (diluted 1:3) or standards. Standards consisted of eleven 1.5-fold serial dilutions from a stock of I ng/mL recombinant human TNF (R&D Systems). Plates were incubated at room temperature for 1 h on orbital shaker (300 rpm), washed and replenished with 100 μL/well of 0.5 μg/mL goat anti-human TNF-α (R&D systems #AB-210-NA) biotinylated at a 4:1 ratio. Plates were incubated for 40 min, washed and replenished with 100 μL/well of alkaline phosphatase-conjugated streptavidin (Jackson ImmunoResearch #016-050-084) at 0.02 μg/mL. Plates were incubated 30 min, washed and replenished with 200 μL/well of 1 mg/mL of p-nitrophenyl phosphate. After 30 min, plates were read at 405 nm on a Vmax plate reader.
# Standard curve data were fit to a second order polynomial and unknown TNF-α concentrations determined from their OD by solving this equation for concentration. TNF concentrations were then plotted vs. test compound concentration using a second order polynomial. This equation was then used to calculate the concentration of test compounds causing a 50% reduction in TNF production.
row,Compound,IC50
1,"Cc1ccc(-c2nnn[nH]2)cc1-c1ccc2c(N3CCOCC3)nncc2c1 [Example 77, 6-[2-Methyl-5-(1H-tetraazol-5-yl)phenyl]-1-morpholin-4-ylphthalazine]",≤ 5 µM
2,"Cc1ccc(C(=O)NC2CC2)cc1-c1ccc2c(C#N)nncc2c1 [Example 79, 3-(1-cyanophthalazin-6-yl)-N-cyclopropyl-4-methylbenzamide]",≤ 5 µM
3,"Cc1sc(C(=O)NC2CC2)cc1-c1ccc2c(N3CCOCC3)nncc2c1 [Example 80, N-Cyclopropyl-5-methyl-4-(1-morpholin-4-ylphthalazin-6-yl)thiophene-2-carboxamide]",≤ 5 µM
4,"Cc1ccc(C(N)=O)cc1-c1ccc2c(N3CCOC[C@H]3C)nncc2c1 [Example 82, 4-Methyl-3-{1-[(3R)-3-methylmorpholin4-yl]phthalazin-6-yl}benzamide]",≤ 5 µM
5,"Cc1ccc(C(=O)NC2CC2)cc1-c1ccc2c(C(N)=O)nncc2c1 [Example 83, 6-{5-[(Cyclopropylamino)carbonyl]-2-methylphenyl}phthalazine-1-carboxamide]",≤ 5 µM
6,"CC(=O)c1nnc(C)c2cc(-c3cc(C(=O)NC4CC4)ccc3C)ccc12 [Example 84, 3-(1-Acetyl-4-methylphthalazin-6-yl)-N-cyclopropyl-4-methylbenzamide]",≤ 5 µM
7,"Cc1ccc(C(=O)NC2CC2)cc1-c1ccc2c(C(=O)N3CCOCC3)nncc2c1 [Example 85, N-Cyclopropyl-4-methyl-3-[1-(morpholin-4-ylcarbonyl)phthalazin-6-yl]benzamide]",≤ 5 µM
8,"Cc1ccc(C(N)=O)cc1-c1ccc2c(N3CCCC3=O)nncc2c1 [Example 94, 4-methyl-3-(1-(2-oxopyrrolidine-1-yl)phthalazin-6-yl)benzamide]",≤ 5 µM
9,"Cc1ccc(C(N)=O)cc1-c1ccc2c(-c3ccc(S(C)(=O)=O)cc3C)nncc2c1 [Example 96, 4-methyl-3-(1-(2-methyl-4-(methylsulfonyl)phenyl)phthalazin-6-yl)benzamide]",≤ 5 µM
10,"Cc1ccc(C(=O)NC2CC2)cc1-c1ccc2c(N3CCCC[C@@H]3C)nncc2c1 [Example 97, N-cyclopropyl-4-methyl-3-{1-[(2S)-2-methylpiperidin-1-yl]phthalazin-6-yl}benzamide]",≤ 5 µM
11,"Cc1ccc(C(=O)NC2CC2)cc1-c1ccc2c(-c3ccccc3C(N)=O)nncc2c1 [Example 98, 3-(1-(2-(aminocarbonyl)phenyl)-6-phthalazinyl)-N-cyclopropyl-4-methylbenzamide]",≤ 5 µM
12,"Cc1ccc(C(=O)NC2CC2)cc1-c1ccc2c(N3CCN4C(=O)OC[C@H]4C3)nncc2c1 [Example 99, 3-{1-[(8aR)-3-oxotetrahydro[1,3]oxazolo[3,4-a]pyrazin-7(1H)-yl]phthalazin-6-yl}-N-cyclopropyl-4-methylbenzamide]",≤ 5 µM
13,"Cc1ccc(C(=O)NC2CC2)cc1-c1ccc2c(N3CCNC(=O)[C@H]3C)nncc2c1 [Example 100, N-cyclopropyl-4-methyl-3-{1-[(2R)-2-methyl-3-oxopiperazin-1-yl]phthalazin-6-yl}benzamide]",≤ 5 µM
14,"Cc1ccc(C(=O)NC2CC2)cc1-c1ccc2c(N3CCN4C(=O)OC[C@@H]4C3)nncc2c1 [Example 101, 3-{1-[(8aS)-3-oxotetrahydro[1,3]oxazolo[3,4-a]pyrazin-7(1H)-yl]phthalazin-6-yl}-N-cyclopropyl-4-methylbenzamide]",≤ 5 µM
15,"Cc1ccc(C(=O)NC2CC2)cc1-c1ccc2c(N3CCN4C(=O)CC[C@H]4C3)nncc2c1 [Example 102, 3-{1-[(8aS)-6-oxohexahydropyrrolo[1,2-a]pyrazin-2(1H)-yl]phthalazin-6-yl}-N-cyclopropyl-4-methylbenzamide]",≤ 5 µM
16,"Cc1ccc(C(=O)NC2CC2)cc1-c1ccc2c(N3CCc4c(O)n[nH]c4C3)nncc2c1 [Example 103, N-cyclopropyl-3-(1-(3-hydroxy-4,5-dihydro-1H-pyrazolo[3,4-c]pyridin-6(7H)-yl)phthalazin-6-yl)-4-methylbenzamide]",≤ 5 µM
17,"Cc1ccc(C(=O)NC2CC2)cc1-c1ccc2c(N3CCn4c(nnc4C(F)(F)F)C3)nncc2c1 [Example 104, N-cyclopropyl-4-methyl-3-(1-(3-(trifluoromethyl)-5,6-dihydro-[1,2,4]triazolo[4,3-a]pyrazin-7(8H)-yl)phthalazin-6-yl)benzamide]",≤ 5 µM

row,Compound,IC50
1,"Cc1ccc(C(=O)NC2CC2)cc1-c1ccc2c(N3CCCC3C)nncc2c1 (stereo not drawn) [Example 105, N-cyclopropyl-4-methyl-3-(1-(2-methylpyrrolidin-1-yl)phthalazin-6-yl)benzamide]",≤ 5 µM
2,"Cc1ccc(S(N)(=O)=O)cc1-c1ccc2c(N3CCOCC3)nncc2c1 [Example 106, 4-Methyl-3-(1-morpholinophthalazin-6-yl)benzenesulfonamide]",≤ 5 µM
3,"Cc1ccc(C(=O)Nc2ccon2)cc1-c1ccc2c(N3CCOCC3)nncc2c1 [Example 108, N-(Isoxazol-3-yl)-4-methyl-3-(1-morpholinophthalazin-6-yl)benzamide]",≤ 5 µM
4,"Cc1ccc(C(=S)NC2CC2)cc1-c1ccc2c(N3CCOCC3)nncc2c1 [Example 109, N-Cyclopropyl-4-methyl-3-(1-morpholinophthalazin-6-yl)benzothioamide]",≤ 5 µM
5,"Cc1ccc(C(=O)NC2CC2)cc1-c1ccc2c(N3CCNC[C@H]3C)nncc2c1 [Example 110, N-cyclopropyl-4-methyl-3-{1-[(2R)-2-methylpiperazin-1-yl]phthalazin-6-yl}benzamide]",≤ 5 µM
6,"Cc1ccc(C(=O)NC2CC2)cc1-c1ccc2c(NCCN3CCOCC3)nncc2c1 [Example 111, N-cyclopropyl-4-methyl-3-{1-[(2-morpholin-4-ylethyl)amino]phthalazin-6-yl}benzamide]",≤ 5 µM
7,"Cc1ccc(C(=O)NC2CC2)cc1-c1ccc2c(N3C[C@@H](C)OC[C@@H]3C)nncc2c1 [Example 112, N-cyclopropyl-3-{1-[(2R,5S)-2,5-dimethylmorpholin-4-yl]phthalazin-6-yl}-4-methylbenzamide]",≤ 5 µM
8,"Cc1cnc(C(=O)NC2CC2)cc1-c1ccc2c(N3C[C@@H](C)OC[C@H]3C)nncc2c1 [Example 113, N-cyclopropyl-4-{1-[(2R,5R)-2,5-dimethylmorpholin-4-yl]phthalazin-6-yl}-5-methylpyridine-2-carboxamide]",≤ 5 µM
9,"Cc1ccc(C(=O)NC2CC2)cc1-c1ccc2c(N3CCC(C(N)=O)CC3)nncc2c1 [Example 114, 1-(6-{5-[(cyclopropylamino)carbonyl]-2-methylphenyl}phthalazin-1-yl)piperidine-4-carboxamide]",≤ 5 µM
10,"Cc1ccc(C(N)=O)cc1-c1ccc2c(N3C[C@@H]4C[C@H]3CO4)nncc2c1 [Example 115, 4-methyl-3-{1-[(1S,4S)-2-oxa-5-azabicyclo[2.2.1]hept-5-yl]phthalazin-6-yl}benzamide]",≤ 5 µM
11,"Cc1ccc(C(N)=O)cc1-c1ccc2c(N3CCNC(=O)C3)nncc2c1 [Example 116, 4-methyl-3-[1-(3-oxopiperazin-1-yl)phthalazin-6-yl]benzamide]",≤ 5 µM
12,"CCNC(=O)c1ccc(C)c(-c2ccc3c(NC(C)C)nncc3c2)c1 [Example 117, N-ethyl-3-[1-(isopropylamino)phthalazin-6-yl]-4-methylbenzamide]",≤ 5 µM
13,"COc1nncc2cc(-c3cc(C(N)=O)ccc3C)ccc12 [Example 118, 3-(1-methoxyphthalazin-6-yl)-4-methylbenzamide]",≤ 5 µM
14,"Cc1ccc(C(N)=O)cc1-c1ccc2c(N3C[C@H](C)OC[C@@H]3C)nncc2c1 [Example 119, 3-{1-[(2S,5S)-2,5-dimethylmorpholin-4-yl]phthalazin-6-yl}-4-methylbenzamide]",≤ 5 µM
15,"Cc1ccc(C(=O)NC2CC2)cc1-c1ccc2c(N3C[C@@H]4C[C@H]3CO4)nncc2c1 [Example 120, N-cyclopropyl-4-methyl-3-{1-[(1S,4S)-2-oxa-5-azabicyclo[2.2.1]hept-5-yl]phthalazin-6-yl}benzamide]",≤ 5 µM
16,"Cc1cc(C)c(-c2nncc3cc(-c4cc(C(=O)NC5CC5)ccc4C)ccc23)c(C)c1 [Example 121, N-cyclopropyl-3-(1-mesitylphthalazin-6-yl)-4-methylbenzamide]",≤ 5 µM
